Laboratory results taken from patent publication US20170129903A1, “COMPOUNDS COMPRISING 1,1a,2,5a-TETRAHYDROSPIRO[INDOLE-3,2a-PYRROLE]-2,5a-DIONE SYSTEM AS INHIBITORS P53-MDM2 PROTEIN-PROTEIN INTERACTION” (ADAMED SP. Z O.O., priority 2014, published 2017).

Tests used:
[1] = biological target: T1, p53-Mdm2 interaction (N-terminal domain of Mdm2 protein, amino acids 1-111) (Homo sapiens, UniProt Q00987); assay: Fluorescence polarization (FP) binding assay of p53-Mdm2 interaction; details: for Ki: FP assay, 130 nM Mdm2, FAM-labelled p53 peptide, Ki transformed from IC50 using Kenakin equation; for times more potent than the corresponding S/R (racemic) mixture: enantiopure S isomers vs racemic Compounds 71, 93 and 72, respectively
T1 construct: N-terminal domain of Mdm2 protein (amino acids 1-111)
T1 sequence (Q00987 1-111): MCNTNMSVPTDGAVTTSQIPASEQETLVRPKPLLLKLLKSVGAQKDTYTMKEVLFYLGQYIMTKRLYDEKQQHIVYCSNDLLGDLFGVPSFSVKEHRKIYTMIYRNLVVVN
Experimental: The inhibition of p53-Mdm2 interaction was measured using a fluorescence polarization (FP) binding assay. FP measures the rotational movement of molecules in a homogenous suspension. For this assay, N-terminal domain of Mdm2 protein (amino acids 1-111) is combined with a fluorescein-labelled (FAM) peptide derived from p53 trans-activation domain. Upon excitation of the fluorescent ligand with linearly polarized light, […]. If the peptide is bound by Mdm2, rotation will slow down and the perpendicular component will decrease. Disruption of the formation of the peptide-Mdm2 complex due to an inhibitor molecule binding to the p53 binding site of Mdm2 results in faster rotation of the peptide.
Fluorescence polarization experiments were read on Tecan Infinite M1000 reader with the 470 nm excitation and 520 nm emission filters for fluorescein. The fluorescence polarization was measured in black 96-well plates (Corning, CLS3991) in room temperature. Purity of Mdm2 was controlled at >95%. Reaction buffer was optimized by adding 5 mM DTT and 0.1% zwitterionic detergent CHAPS to reduce effect of nonspecific interactions.
The test was performed by combining successive dilution of compounds diluted in dimethyl sulfoxide (DMSO, 5% final concentration) with 130 nM Mdm2 in reaction buffer (PBS, 0.1% CHAPS, 5 mM DTT (dithiothreitol)). After 15 minutes of incubation in room temperature […] FAM-labelled peptide was added. Final reading was performed after 90 minutes of incubation. Dose-dependent binding curves and IC50 values were calculated using GraphPad Prism5 and next transformed to Ki values using Kenakin equation.

[2] = test system: SJSA-1 osteosarcoma cell line; assay: MTT cell viability assay; type: cell-based; details: Homo sapiens, SJSA-1, 72 h, 72 h incubation, average of 2-5 experiments
Experimental: The effect of the invented p53-Mdm2 inhibitors on cell viability has been assessed using MTT assay. It is a colorimetric assay that measures conversion of tetrazolium ring of the soluble yellow dye (MTT) into insoluble purple formazan. This process is catalysed solely in mitochondrial dehydrogenases of living cells.
Cells were seeded on 96-well plates and then treated with successive dilutions of tested compounds. After 72 h incubation, MTT was added to the final concentration 0.5 mg/ml. The cells were further incubated for the next 4 h. Then the solution was drained and the remaining formazan crystals were dissolved in 100 μl DMSO. […] All the MTT experiments were independently repeated 2-5 times. Dose-dependent binding curves and IC50 values were calculated using GraphPad Prism 5.

Q: `COC(=O)c1ccc(OC)c(-n2nc3c(c2C(C)C)C2(C(=O)Nc4cc(Cl)ccc42)N(c2cc(Cl)ccc2O)C3=O)c1` (centres unmarked) [Compound 79, methyl 3-[6-chloro-5′-(5-chloro-2-hydroxyphenyl)-2,6′-dioxo-3′-(propan-2-yl)-1,2,5′,6′-tetrahydro-2′H-spiro[indole-3,4′-pyrrolo[3,4-c]pyrazole]-2′-yl]-4-methoxybenzoate] was tested. Which Ki [1] did it give?
A: The Ki was 5.7 nM.

Q: And the IC50 [2]?
A: Its IC50 is 1.02 µM.

Q: Which Ki [1] does the source give for `CCOC(=O)c1ccc(Cl)cc1N1C(=O)c2cn(-c3ccccc3OC)c(C(C)C)c2C12C(=O)Nc1cc(Cl)ccc12` (centres unmarked) [Compound 106, ethyl 4-chloro-2-[6-chloro-5′-(2-methoxyphenyl)-2,3′-dioxo-6′-(propan-2-yl)-1,2,3′,5′-tetrahydro-2′H-spiro[indole-3,1′-pyrrolo[3,4-c]pyrrole]-2′-yl]benzoate] here?
A: Its Ki is 4.2 nM.

Q: What about the IC50 [2] of the same compound?
A: Its IC50 is 0.78 µM.

Q: For `O=C1C(O)=C(c2ccccc2)C2(C(=O)Nc3cc(Cl)c(Cl)cc32)N1c1cccc(Cl)c1` (centres unmarked) [Compound 43, 5,6-dichloro-1′-(3-chlorophenyl)-4′-hydroxy-3′-phenyl-1,1′,2,5′-tetrahydrospiro [indole-3,2′-pyrrole]-2,5′-dione], which Ki [1] is on record?
A: The Ki was 650 nM.

Q: What about the IC50 [2] of the same compound?
A: Its IC50 is 43.8 µM.

Q: `CSc1ccccc1-n1nc2c(c1C(C)C)C1(C(=O)Nc3cc(Cl)ccc31)N(c1cc(Cl)ccc1C)C2=O` (centres unmarked) [Compound 77, 6-chloro-5′-(5-chloro-2-methylphenyl)-2′-[2-(methylsulfanyl)phenyl]-3′-(propan-2-yl)-1,2,5′,6′-tetrahydro-2′H-spiro[indole-3,4′-pyrrolo[3,4-c]pyrazole]-2,6′-dione] was tested. Which Ki [1] did it give?
A: Its Ki is 30 nM.

Q: What about the IC50 [2] of the same compound?
A: Its IC50 is 8.57 µM.

Q: Which results are given for `CC1(c2c3c(nn2CC2CCCN2)C(=O)N(c2cccc(Cl)c2)C32C(=O)Nc3cc(Cl)ccc32)CC1` (centres unmarked) [Compound 28, 6-chloro-5′-(3-chlorophenyl)-3′-(1-methylcyclopropyl)-2′-(pyrrolidin-2-ylmethyl)-1,2,5′,6′-tetrahydro-2′H-spiro [indole-3,4′-pyrrolo[3,4-c]pyrazole]-2,6′-dione]?
A: Ki [1]: 1460 nM; IC50 [2]: 32 µM

Q: What does the source list for `COc1ccccc1-n1nc2c(c1C1(C)CC1)C1(C(=O)Nc3cc(Cl)ccc31)N(c1cccc(Cl)c1)C2=O` (centres unmarked) [Compound 26, 6-chloro-5′-(3-chlorophenyl)-2′-(2-methoxyphenyl)-3′-(1-methylcyclopropyl)-1,2,5′,6′-tetrahydro-2′H-spiro[indole-3,4′-pyrrolo[3,4-c]pyrazole]-2,6′-dione]?
A: Ki [1]: 23 nM; IC50 [2]: 4.91 µM

Q: `COc1ccc(C(N)=O)cc1-n1cc2c(c1C(C)C)C1(C(=O)Nc3cc(Cl)ccc31)N(c1cc(Cl)ccc1C)C2=O` (centres unmarked) [Compound 95, 3-[6-chloro-2′-(5-chloro-2-methylphenyl)-2,3′-dioxo-6′-(propan-2-yl)-1,2,3′,5′-tetrahydro-2′H-spiro[indole-3,1′-pyrrolo [3,4-c]pyrrole]-5′-yl]-4-methoxybenzamide] was tested. Which Ki [1] did it give?
A: Its Ki is 1.8 nM.

Q: And the IC50 [2]?
A: Its IC50 is 0.3 µM.

Q: Which Ki [1] does the source give for `CC(C)(C)c1[nH]nc2c1C1(C(=O)Nc3cc(Cl)ccc31)N(c1cccc(Cl)c1)C2=O` (centres unmarked) [Compound 20, 3′-tert-butyl-6-chloro-5′-(3-chlorophenyl)-1,2,5′,6′-tetrahydro-2′H-spiro[indole-3,4′-pyrrolo[3,4-c]pyrazole]-2,6′-dione] here?
A: Its Ki is 24 nM.

Q: And the IC50 [2]?
A: Its IC50 is 21.2 µM.

Q: How did the Ki [1] turn out when `COc1ccc(-n2cc3c(c2C(C)C)[C@@]2(C(=O)Nc4cc(Cl)ccc42)N(c2cc(Cl)ccc2C)C3=O)c(OC)c1` [Compound 107, (3S)-6-chloro-2′-(5-chloro-2-methylphenyl)-5′-(2,4-dimethoxyphenyl)-6′-(propan-2-yl)-1,2,3′,5′-tetrahydro-2′H-spiro[indole-3,1′-pyrrolo[3,4-c]pyrrole]-2,3′-dione] was run?
A: The Ki was 1.9 nM.

Q: What about the “times more potent than the corresponding S/R (racemic) mixture” value [1] of the same compound?
A: The value was “about 2 times”.

Q: And the IC50 [2]?
A: The IC50 was 0.06 µM.

Q: With `Cc1cccc(-n2nc3c(c2C(C)C)C2(C(=O)Nc4cc(Cl)ccc42)N(c2cc(Cl)ccc2C)C3=O)c1` (centres unmarked) [Compound 69, 6-chloro-5′-(5-chloro-2-methylphenyl)-2′-(3-methylphenyl)-3′-(propan-2-yl)-1,2,5′,6′-tetrahydro-2′H-spiro[indole-3,4′-pyrrolo[3,4-c]pyrazole]-2,6′-dione] as the compound, how does the Ki [1] read?
A: Its Ki is 67 nM.

Q: And the IC50 [2]?
A: Its IC50 is 4.04 µM.

Q: How did the Ki [1] turn out when `CCc1ccccc1-n1nc2c(c1CC)C1(C(=O)Nc3cc(Cl)ccc31)N(c1cc(Cl)ccc1C)C2=O` (centres unmarked) [Compound 85, 6-chloro-5′-(5-chloro-2-methylphenyl)-3′-ethyl-2′-(2-ethylphenyl)-1,2,5′,6′-tetrahydro-2′H-spiro[indole-3,4′-pyrrolo [3,4-c]pyrazole]-2,6′-dione] was run?
A: Its Ki is 86 nM.

Q: And the IC50 [2]?
A: Its IC50 is 13 µM.

Q: How did the Ki [1] turn out when `COc1ccc(NC(C)=O)cc1-n1cc2c(c1C(C)C)[C@@]1(C(=O)Nc3cc(Cl)ccc31)N(c1cc(Cl)ccc1C)C2=O` [Compound 108, N-{3-[(3S)-6-chloro-2′-(5-chloro-2-methylphenyl)-2,3′-dioxo-6′-(propan-2-yl)-1,2,3′,5′-tetrahydro-2′H-spiro[indole-3,1′-pyrrolo[3,4-c]pyrrole]-5′-yl]-4-methoxyphenyl}acetamide] was run?
A: Its Ki is 1.6 nM.

Q: What about the IC50 [2] of the same compound?
A: Its IC50 is 0.35 µM.

Q: Which Ki [1] does the source give for `Cc1ccc(Cl)cc1N1C(=O)C(O)=C(c2ccccc2)C12C(=O)Nc1cc(Cl)ccc12` (centres unmarked) [Compound 47, 6-chloro-1′-(5-chloro-2-methylphenyl)-4′-hydroxy-3′-phenyl-1,1′,2,5′-tetrahydrospiro[indole-3,2′-pyrrole]-2,5′-dione] here?
A: The Ki was 29 nM.

Q: And the IC50 [2]?
A: The IC50 was 44.5 µM.

Q: `O=C1C(O)=C(C2CCCCC2)C2(C(=O)Nc3cc(Cl)ccc32)N1c1cccc(Cl)c1` (centres unmarked) [Compound 44, 6-chloro-1′-(3-chlorophenyl)-3′-cyclohexyl-4′-hydroxy-1,1′,2,5′-tetrahydrospiro[indole-3,2′-pyrrole]-2,5′-dione] was tested. Which Ki [1] did it give?
A: Its Ki is 281 nM.

Q: What about the IC50 [2] of the same compound?
A: Its IC50 is 18.1 µM.

Q: Which Ki [1] does the source give for `CCOC(=O)CNC1=C(c2ccccc2)C2(C(=O)Nc3cc(Cl)ccc32)N(c2cccc(Cl)c2)C1=O` (centres unmarked) [Compound 48, ethyl 2-{[6-chloro-1′-(3-chlorophenyl)-2,5′-dioxo-3′-phenyl-1,1′,2,5′-tetrahydrospiro[indole-3,2′-pyrrole]-4′-yl]amino}acetate] here?
A: Its Ki is 205 nM.

Q: What about the IC50 [2] of the same compound?
A: The IC50 was 28 µM.

Q: `COc1ccc(Cl)cc1N1C(=O)C(O)=C(c2ccccc2)C12C(=O)Nc1cc(Cl)ccc12` (centres unmarked) [Compound 46, 6-chloro-1′-(5-chloro-2-methoxyphenyl)-4′-hydroxy-3′-phenyl-1,1′,2,5′-tetrahydrospiro[indole-3,2′-pyrrole]-2,5′-dione] was tested. Which Ki [1] did it give?
A: Its Ki is 96 nM.

Q: And the IC50 [2]?
A: Its IC50 is 32.3 µM.

Q: `COc1ccccc1-n1nc2c(c1C(C)C)[C@@]1(C(=O)Nc3cc(Cl)ccc31)N(c1cc(Cl)cnc1C)C2=O` [Compound 80, (3S)-6-chloro-5′-(5-chloro-2-methyl-pyridin-3-yl)-2′-(2-methoxyphenyl)-3′-(propan-2-yl)-1,2,5′,6′-tetrahydro-2′H-spiro [indole-3,4′-pyrrolo[3,4-c]pyrazole]-2,6′-dione] was tested. Which Ki [1] did it give?
A: Its Ki is 1.9 nM.

Q: And the “times more potent than the corresponding S/R (racemic) mixture” value [1]?
A: The value was “about 2 times”.

Q: And the IC50 [2]?
A: The IC50 was 0.28 µM.

Q: Which Ki [1] does the source give for `O=C1C(O)=C(c2ccccc2)C2(C(=O)Nc3cc(Cl)ccc32)N1c1cc(Cl)ccc1F` (centres unmarked) [Compound 45, 6-chloro-1′-(5-chloro-2-fluorophenyl)-4′-hydroxy-3′-phenyl-1,1′,2,5′-tetrahydrospiro[indole-3,2′-pyrrole]-2,5′-dione] here?
A: The Ki was 36 nM.

Q: And the IC50 [2]?
A: Its IC50 is 29.9 µM.

Q: For `Cc1ccc(Cl)cc1N1C(=O)c2n[nH]c(C3(C)CC3)c2C12C(=O)Nc1cc(Cl)ccc12` (centres unmarked) [Compound 18, 6-chloro-5′-(5-chloro-2-methylphenyl)-3′-(1-methylcyclopropyl)-1,2,5′,6′-tetrahydro-2′H-spiro[indole-3,4′-pyrrolo [3,4-c]pyrazole]-2,6′-dione], which Ki [1] is on record?
A: The Ki was 45 nM.

Q: And the IC50 [2]?
A: Its IC50 is 10.8 µM.

Q: What does the source list for `COc1ccc(Cl)cc1N1C(=O)c2n[nH]c(C(C)C)c2C12C(=O)Nc1cc(Cl)ccc12` (centres unmarked) [Compound 25, 6-chloro-5′-(5-chloro-2-methoxyphenyl)-3′-(propan-2-yl)-1,2,5′,6′-tetrahydro-2′H-spiro[indole-3,4′-pyrrolo[3,4-c]pyrazole]-2,6′-dione]?
A: Ki [1]: 94 nM; IC50 [2]: 10.2 µM

Q: For `O=C1C(O)=C(c2ccccc2)C2(C(=O)Nc3cc(Cl)ccc32)N1c1cccc(Cl)c1` (centres unmarked) [Compound 41, 6-chloro-1′-(3-chlorophenyl)-4′-hydroxy-3′-phenyl-1,1′,2,5′-tetrahydrospiro[indole-3,2′-pyrrole]-2,5′-dione], which Ki [1] is on record?
A: Its Ki is 24 nM.

Q: What about the IC50 [2] of the same compound?
A: Its IC50 is 21.4 µM.
